Assay results: PMC10291553, “Exploring Structure–Activity Relationships in Photodynamic Therapy Anticancer Agents Based on Ir(III)-COUPY Conjugates” (Journal of Medicinal Chemistry, 2023)
“And” between values parts separate entries of the source, which are not always exact repeats. Equal entries are not always repeated. Where two headings read alike, the source gives them in different places.

What was measured:
[1] = tested on: A375; experiment: Photo- and cytotoxic activity determination (MTT), A375 cells; format: cell-based, human; details: normoxia; for A375 PI (phototherapeutic index), IC50 dark/IC50 irradiated: 520 nm, dark tested up to 100 μM; for IC50: 48 h drug-free medium
Excerpt: (§1) Having shown that the Ir(III)-COUPY conjugates can sensitize both type I and II ROS through spectroscopic techniques and readily internalize into living cells, their photocytotoxicity was screened in various cancer cell lines. This screening included two representative melanoma cell lines (human A375 and […] human SK-MEL-28) and cancer cells with resistance to the clinical drug cisplatin. For the latter, both sensitive and cisplatin-resistant ovarian cancer cells (A2780 and A2780cis) as well as HeLa cells, which also show a degree of chemoresistance to the platinum anticancer drug in vitro,[54] were used. For the determination of dark and light cytotoxicity, dose–response curves were assayed from both conditions to provide the correspondent IC50 values, which correspond to the concentration needed for inhibition of cell growth by 50%. Phototherapeutic index (PI) was calculated as the ratio of dark to light IC50 value for each compound.
(§2) A375, HeLa, and SK-MEL-28 cells were cultured in Dulbecco’s modified Eagle medium (DMEM) supplemented with 10% FBS, L-glutamine, and 1% penicillin–streptomycin. A2780 and A2780cis cells were grown in RPMI-1640 cell medium supplemented with 10% fetal bovine serum (FBS) and 2 mM L-glutamine. Acquired resistance to cisplatin in the A2780cis cell line was maintained by adding cisplatin 1 μM to culture medium every second passage. Cells were cultured in a humidified incubator at 310 K with 5% CO2 atmosphere and subcultured two or three times a week with appropriate densities and were confirmed to be mycoplasma-free using a standard Hoechst DNA staining method.
(§3) A2780, A2780cis, HeLa, A375, and SK-MEL-28 cells were maintained at logarithmic growth-phase and cultured in 96-well plates at a density of 5000 cells/well in complete medium for 24 h at 310 K, 5% CO2 in a humidified incubator. For hypoxia experiments, a hypoxia condition was set up by Tissue Culture Service at University of Murcia using nitrogen (N2) to displace O2 down to a minimum of 2% in a Forma Steri-Cycle i160 incubator (Thermo Fisher Scientific). Serial dilutions of the compounds were added at the final concentrations in the range of 0–100 μM in a final volume of 100 μL per well. A light-based treatment schedule was performed as follows: 1 h incubation with the compounds in the dark, followed by 1 h incubation under irradiation conditions by placing the Photoreactor EXPO-LED from Luzchem (Canada) fitted with green lamps (final light intensity applied of 1.5 mW/cm^2 at λmax = 520 nm) inside the CO2 incubator. All the cell culture plates subjected to light irradiation included untreated controls to verify that cell viability was not affected by light. Then, treatment-containing media was removed, and fresh media was added for a 48 h cell recovery period; the temperature throughout the experiment remained at 310 K. Dark control samples were placed in the same dark conditions and then kept incubated for 1 h in the dark in the humidified CO2 incubator. Medium was then aspirated by suction, cells were loaded with 50 μL of MTT solution (1 mg/mL) for additional 4 h and then removed, and 50 μL of DMSO was added to solubilize the purple formazan crystals formed in active cells. The absorbance was measured at 570 nm using a microplate reader (FLUOstar Omega), and the IC50 values were calculated based on the inhibitory rate curves using the following equation [drawing 4] 4 where I represents the percentage inhibition of viability observed, Imax is the maximal inhibitory effect, IC50 is the concentration that inhibits 50% of maximal growth, C is the concentration of the treatment, and n is the slope of the semi-logarithmic dose–response sigmoidal curves. The non-linear fitting was performed using SigmaPlot 14.0 software. All experiments were performed in three independent studies with n = 3 replicates per concentration level. For a detailed phototoxicity procedure, ref ([43]) includes technical explanations.

[2] = tested on: SK-MEL-28; experiment: Photo- and cytotoxic activity determination (MTT), SK-MEL-28 cells; format: cell-based, human; details: normoxia; for SK-MEL-28 PI (phototherapeutic index), IC50 dark/IC50 irradiated: dark tested up to 100 μM
Excerpt: as §1, §2, §3

[3] = tested on: A2780; experiment: Photo- and cytotoxic activity determination (MTT), A2780 cells; format: cell-based; details: normoxia; for A2780 PI (phototherapeutic index), IC50 dark/IC50 irradiated: 520 nm, dark tested up to 100 μM; for IC50: 48 h drug-free medium
Excerpt: as §1, §2, §3

[4] = tested on: A2780cis cells; experiment: Photo- and cytotoxic activity determination (MTT), A2780cis cells, normoxia or hypoxia; format: cell-based; details: for Partial inhibition (% of cell growth inhibition with respect to untreated controls), Hypoxia / Partial inhibition (% of cell growth inhibition with respect to untreated controls), Normoxia: 250 μM, 2 h incubation in the dark, 48 h drug-free recovery; for Hypoxia PI (phototherapeutic index) / Normoxia PI (phototherapeutic index): dark tested up to 250 μM; for A2780cis PI (phototherapeutic index), IC50 dark/IC50 irradiated: dark tested up to 100 μM
Method in brief: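 Dark and light IC50 values come from MTT viability (A570) after 1 h compound exposure in the dark, then 1 h under 520 nm light at 1.5 mW/cm^2 or continued darkness, and 48 h drug-free recovery. Phototherapeutic index is dark/light IC50. A2780cis were kept resistant with 1 μM cisplatin every second passage.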

[5] = 1 h incubation + 1 h green light 520 nm, 1.5 mW cm^–2, read-out: A375 light IC50
[6] = kept in the dark, 2 h treatment, read-out: A375 dark IC50
[7] = 1 h incubation + 1 h green light 520 nm, 1.5 mW cm^–2, 48 h drug-free medium, read-out: SK-MEL-28 light IC50
[8] = kept in the dark, 2 h treatment, 48 h drug-free medium, read-out: SK-MEL-28 dark IC50
[9] = 1 h incubation + 1 h green light 520 nm, 1.5 mW cm^–2, read-out: A2780 light IC50
[10] = kept in the dark, 2 h treatment, read-out: A2780 dark IC50
[11] = A2780cis, hypoxia 2% O2, 520 nm
[12] = A2780cis, hypoxia 2% O2, dark, tested up to 250 μM, read-out: Hypoxia Dark IC50
[13] = A2780cis, normoxia 21% O2, 520 nm
[14] = A2780cis, normoxia 21% O2, dark, tested up to 250 μM, read-out: Normoxia Dark IC50
[15] = hypoxia, 520 nm, read-out: A2780cis Light 520 nm IC50 (microM) Hypoxia
[16] = hypoxia, dark, read-out: A2780cis Dark IC50 (microM) Hypoxia
[17] = normoxia, 1 h incubation + 1 h green light 520 nm, 1.5 mW cm^–2, 48 h drug-free medium, read-out: A2780cis light IC50
[18] = normoxia, dark, up to 250 microM, read-out: A2780cis Dark IC50 (microM) Normoxia
[19] = normoxia, kept in the dark, tested up to 100 μM, 2 h treatment, 48 h drug-free medium, read-out: A2780cis dark IC50

Compound | A375 PI (phototherapeutic index), IC50 dark/IC50 irradiated [1] | IC50 [1, 5] [µM] | IC50 [1, 6] [µM] | IC50 [2, 7] [µM] | IC50 [2, 8] [µM] | A2780 PI (phototherapeutic index), IC50 dark/IC50 irradiated [3] | IC50 [3, 9] [µM] | IC50 [3, 10] [µM] | Partial inhibition (% of cell growth inhibition with respect to untreated controls), Hypoxia ([4]; A2780cis, hypoxia) [%] | Partial inhibition (% of cell growth inhibition with respect to untreated controls), Normoxia ([4]; A2780cis, normoxia) [%] | Hypoxia PI (phototherapeutic index) [4, 11] | IC50 [4, 12] [µM] | Normoxia PI (phototherapeutic index) [4, 13] | IC50 [4, 14] [µM] | IC50 [4, 15] [µM] | IC50 [4, 16] [µM] | A2780cis PI (phototherapeutic index), IC50 dark/IC50 irradiated ([4]; normoxia, 520 nm) | IC50 [4, 17] [µM] | IC50 [4, 18] [µM] | IC50 [4, 19] [µM] | also measured
CCCCn1c2[n+](c3cc(C(=O)NCCCNC(=O)C[n+]4ccc(/C(C#N)=C5/C=C(C)c6cc7c8c(c6O5)CCCN8CCC7)cc4)ccc31)[Ir-3]13([c]4ccccc4-c4[nH]c5ccccc5[n+]41)([c]1ccccc1-c1[nH]c4ccccc4[n+]13)[n+]1c-2ccc2ccccc21 [3c] | > 3 | 38 ± 5 | > 100 | > 100 | > 100 | > 48 | 2.1 ± 0.2 | > 100 | 61 ± 8 | 74 ± 10 | > 31.3 and > 31 | > 250 | > 240.4 and > 240 | > 250 | 8 ± 1 | > 250 | > 96 | 1.04 ± 0.02 | > 250 | > 100 | IC50 ([2]; 520 nm, read-out: SK-MEL-28 Light 520 nm IC50 (microM) Normoxia): > 100 µM; IC50 ([2]; dark, read-out: SK-MEL-28 Dark IC50 (microM) Normoxia): > 100 µM
CCCCn1c2[n+](c3cc(C(=O)NCCCCCC(=O)NCCCNC(=O)C[n+]4ccc(/C(C#N)=C5/C=C(C)c6ccc(N(CC)CC)cc6O5)cc4)ccc31)[Ir-3]13([c]4ccccc4-c4[nH]c5ccccc5[n+]41)([c]1ccccc1-c1[nH]c4ccccc4[n+]13)[n+]1c-2ccc2ccccc21 [3d] | > 2.2 | 46 ± 4 | > 100 | 2.5 ± 0.2 | > 100 | > 56 | 1.78 ± 0.07 | > 100 | 27 ± 4 | 21 ± 1 | > 131.6 and > 131 | > 250 | > 227.3 and > 227 | > 250 | 1.9 ± 0.2 | > 250 | > 91 | 1.1 ± 0.2 | > 250 | > 100 | SK-MEL-28 PI (phototherapeutic index), IC50 dark/IC50 irradiated ([2]; 520 nm): > 40
CCCCn1c2[n+](c3cc(C(=O)NC[C@H]4CC[C@H](C(=O)NCCCNC(=O)C[n+]5ccc(/C(C#N)=C6/C=C(C)c7ccc(N(CC)CC)cc7O6)cc5)CC4)ccc31)[Ir-3]13([c]4ccccc4-c4[nH]c5ccccc5[n+]41)([c]1ccccc1-c1[nH]c4ccccc4[n+]13)[n+]1c-2ccc2ccccc21 [3e] | > 5 | 19 ± 3 | > 100 | 7.6 ± 0.9 | > 100 | > 53 | 1.9 ± 0.2 | > 100 | 12 ± 3 | 18 ± 1 | > 147.1 and > 147 | > 250 | > 268.8 and > 269 | > 250 | 1.7 ± 0.3 | > 250 | > 108 | 0.93 ± 0.04 | > 250 | > 100 | SK-MEL-28 PI (phototherapeutic index), IC50 dark/IC50 irradiated ([2]; 520 nm): > 13
CCCCn1c2[n+](c3cc(C(=O)OC)ccc31)[Ir-3]13([c]4ccccc4-c4[nH]c5ccccc5[n+]41)([c]1ccccc1-c1[nH]c4ccccc4[n+]13)[n+]1c-2ccc2ccccc21 [2a] | > 48 | 2.1 ± 0.3 | > 100 | 2.8 ± 0.3 | > 100 | > 25 | 4 ± 1 | > 100 | 56 ± 6 | 62 ± 4 | > 22.7 | > 250 | > 71.4 | > 250 | 11 ± 2 | > 250 | > 29 | 3.5 ± 0.4 | > 250 | > 100 | SK-MEL-28 PI (phototherapeutic index), IC50 dark/IC50 irradiated ([2]; 520 nm): > 36
